Source: patent US6440979B1, “Aryl isoguanines” (Euro-Celtique, S.A., priority 1994, dated 2002)
Read-outs that look alike come from different tables or passages of the source.

What was measured:
[1] = molecular target: T1, Type V PDE isolated from platelets (Homo sapiens, UniProt O76074); assay: Type V PDE inhibition, hydrolysis of [3H]-cyclic GMP; assay type: biochemical; settings: cyclic GMP 0.2 uM; 2.5% DMSO
T1 construct: Fractions that contain PDE V are pooled and dialyzed overnight; from tissue
Procedure: The Type V PDE is isolated using a procedure similar to that previously described by Weishaar et al., Hypertension 15:528, (1990). Briefly, 1-2 units of platelets are suspended in an equal volume of buffer A (20 mM Tris-HCl, pH 7.5, containing 2 mM magnesium acetate, 1 mM dithiothreitol, and 5 mM Na2EDTA) using a polytron. The proteinase inhibitor phenylmethylsulfonyl fluoride (PMSF) are also included in this buffer at a final concentration of 200 uM. This and all subsequent procedures are performed at 0-4° C. The homogenate is then centrifuges at 100,000×g for 60 minutes. The supernatant is then removed and filtered through four layers of gauze and applied to a DEAE-Trisacryl M column. The column is washed with several bed volumes of buffer B (20 mM Tris-HCl, pH 7.5, containing 2 mM magnesium acetate, 1 mM diothiothreitol, and 200 uM PMSF) and eluted by two successive linear NaCl gradients (0.05-0.15 M, 300 ml total; 0.15-0.40 M, 200 ml total). Five ml fractions are collected and assayed for cyclic AMP and cyclic GMP PDE activity. Fractions that contain PDE V are pooled and dialyzed overnight against 4 L of buffer C (20 mm Tris-HCl, pH 7.5, containing 2 mM magnesium acetate and proteinase inhibitors). The dialyzed PDE V is then concentrated to 10% of the original volume, diluted to 50% with ethylene glycol monoethyl ether and stored at −20° C. PDE V can typically be retained for up to four weeks with little or no loss of activity.
Enzyme activity are assessed by measuring the hydrolysis of [^3H]-cyclic […], as described by Thompson et al. (Thompson, W. J., Teraski, W. L., Epstein, P. N., Strada, S. J.: Adv. Cyclic Nucleotide Res. 10:69, 1979). The cyclic GMP concentration used in this assay is 0.2 uM, which approximates to the Km value. Protein concentration is adjusted to ensure that no more than 15% of the available substrate is hydrolyzed during the incubation period.
All test compounds are dissolved in dimethyl sulfoxide (final concentration of 2.5%). […] The reference Type V PDE inhibitor zaprinast is evaluated with each assay.
(§1) The compounds are tested over concentration range: 0.1, 1, 10, 100 uM (n=1), and IC50 determinations are made using 5 appropriate concentrations (n=2).

[2] = test system: PDE IV isolated from bovine tracheal smooth muscle; assay: Type IV PDE inhibition, hydrolysis of [3H]-cyclic AMP; assay type: biochemical; settings: cyclic AMP 0.2 μM; 2.5% DMSO
Source text: The PDE IV inhibitory compounds of the present invention may be examined for their PDE IV inhibitory effects via the techniques set forth in the following examples, wherein the ability of the compounds to inhibit PDE IV isolated from bovine tracheal smooth muscle is set forth.
The Type IV PDE is isolated from bovine tracheal smooth muscle using a procedure similar to that previously described by Silver, P. J. et al., Eur. J. Pharmacol. 150:85,1988. Briefly, smooth muscle from bovine trachea is minced and homogenized using a polytron in 10 volumes of an extraction buffer containing 10 mm Tris-acetate (pH 7.5), 2 mM magnesium chloride, 1 mM dithiothreitol and 2,000 units/ml of aprotinin. This and all subsequent procedures are performed at 0-4° C. The homogenate is sonicated and then centrifuged at 48,000×g for 30 minutes. The resulting supernatant is applied to a DEAE Trisacryl M column previously equilibrated with sodium acetate and dithiothreitol. After applications of the sample, the column is washed with sodium acetate/dithiothreitol, after which the different forms of PDE are eluted from the column using a linear Tris-HCl/NaCl gradient. Fractions containing Type IV PDE are collected, dialyzed and concentrated to 14% of the original volume. The concentrated fractions are diluted to 50% with ethylene glycol and stored at −20° C.
(§2) Enzyme activity is assessed by measuring the hydrolysis of [^3H]-cyclic AMP, as described by Thompson, W. J. et al., Adv. Cyclic Nucleotide Res. 10:69, 1979. The cyclic AMP concentration used in this assay is 0.2 μM, which approximates the Km value. Protein concentration is adjusted to ensure that no more than 15% of the available substrate is hydrolyzed during the incubation period.
(§3) All test compounds are dissolved in dimethyl sulfoxide (final concentration of 2.5%). This concentration of dimethyl sulfoxide inhibits enzyme activity by approximately 10%.
as §1

[3] = molecular target: T2, Type III PDE isolated from human platelets (Homo sapiens, UniProt Q14432); assay: Type III PDE inhibition, hydrolysis of [3H]-cyclic AMP; assay type: biochemical
T2 construct: Fractions containing PDE III activity are pooled and dialyzed overnight; from tissue; host or cells: human platelets (100,000 x g supernatant, DEAE-Trisacryl M fraction)
T2 sequence (Q14432 whole entry): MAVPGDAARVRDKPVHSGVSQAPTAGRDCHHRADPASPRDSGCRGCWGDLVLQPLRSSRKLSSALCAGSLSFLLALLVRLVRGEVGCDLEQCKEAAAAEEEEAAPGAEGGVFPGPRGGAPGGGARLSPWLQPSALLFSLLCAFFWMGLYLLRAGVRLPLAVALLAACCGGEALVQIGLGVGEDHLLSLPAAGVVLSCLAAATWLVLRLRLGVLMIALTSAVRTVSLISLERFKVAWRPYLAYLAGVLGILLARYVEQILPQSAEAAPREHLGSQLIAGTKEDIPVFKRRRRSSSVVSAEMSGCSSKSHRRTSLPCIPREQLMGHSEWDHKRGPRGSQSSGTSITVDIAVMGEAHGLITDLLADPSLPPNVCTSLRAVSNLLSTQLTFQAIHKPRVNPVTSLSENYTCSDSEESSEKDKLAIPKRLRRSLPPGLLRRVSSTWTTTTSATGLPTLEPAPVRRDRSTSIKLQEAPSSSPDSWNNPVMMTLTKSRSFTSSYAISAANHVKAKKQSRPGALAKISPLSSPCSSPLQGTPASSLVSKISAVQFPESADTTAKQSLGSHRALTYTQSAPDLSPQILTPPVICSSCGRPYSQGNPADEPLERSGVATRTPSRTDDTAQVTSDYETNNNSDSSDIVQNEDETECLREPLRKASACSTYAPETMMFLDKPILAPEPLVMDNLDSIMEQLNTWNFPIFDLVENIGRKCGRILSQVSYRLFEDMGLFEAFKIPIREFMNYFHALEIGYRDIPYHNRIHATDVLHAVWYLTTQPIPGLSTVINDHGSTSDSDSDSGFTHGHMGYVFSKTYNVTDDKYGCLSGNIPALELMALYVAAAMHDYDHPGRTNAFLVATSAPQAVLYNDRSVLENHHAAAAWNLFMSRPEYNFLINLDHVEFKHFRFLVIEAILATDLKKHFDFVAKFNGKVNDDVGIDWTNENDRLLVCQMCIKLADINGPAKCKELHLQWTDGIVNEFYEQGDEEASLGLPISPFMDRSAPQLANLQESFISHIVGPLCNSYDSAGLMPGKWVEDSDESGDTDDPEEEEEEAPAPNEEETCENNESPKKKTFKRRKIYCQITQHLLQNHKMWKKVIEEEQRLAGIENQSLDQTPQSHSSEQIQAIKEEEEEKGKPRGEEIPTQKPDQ
Procedure: The Type III PDE is isolated from human platelets using a procedure similar to that previously described by Weishaar, R. E. et al., Biochem. Pharmacol., 35:787, 1986. Briefly, 1-2 units of platelets are suspended in an equal volume of buffer (20 mM Tris-HCl, pH 7.5, containing 2 mM magnesium acetate, 1 mM dithiothreitol, and 5 mM Na2 EDTA). The proteinase inhibitor phenylmethyl-sulfonyl fluoride (PMSF) is also included in this buffer at a final concentration of 200 μM. The suspension is homogenized using a polytron and the homogenate centrifuged at 100,000×g for 60 minutes. This and all subsequent procedures are performed at 0-4° C. The supernatant is then filtered through four layers of gauze and applied to a DEAE-Trisacryl M column, previously equilibrated with buffer B (20 mM Tris-HCl, pH 7.5, containing 1 mM magnesium acetate, 1 mM dithiothreitol and 200 μM PMSF). After application of the sample, the column is washed with several bed volumes of buffer B, after which the different forms of PDE are eluted from the column using two successive linear NaCl gradients (0.05-0.15 M, 300 ml total; 0.15-0.40 Ma 200 ml total); Five ml fractions are collected and assayed for cyclic AMP and cyclic GMP PDE activity., Fractions containing PDE III activity are pooled and dialyzed overnight against 4 L of buffer B. The dialyzed PDE III is then concentrated to 10% of the original volume, diluted to 50% with ethylene glycol monoethyl ether and stored at −20° C. PDE III can typically be retained for up to four weeks with little or no loss of activity.
as §2, with “[(^3H]-cyclic” for “[^3H]-cyclic”, “approximates to” for “approximates”
as §3, §1

[4] = cyclic AMP 0.2 μM, 2.5% DMSO, read-out: PDE ACTIVITY IC50 PDE III

Compound	IC50 [1] [µM]	IC50 [2] [µM]	IC50 [3, 4] [µM]	IC50 ([3]; read-out: IC50 for PDE III inhibition) [µM]	melting point
CC(C)c1nc2c([nH]1)c(=S)[nH]c(=O)n2Cc1ccc(Cl)cc1 [Ex. 5a, 3-(4-Chlorobenzyl)-8-isopropyl-6-thioxanthine]	2	8.6	29	–	–
COc1ccc(Cn2c(=O)[nH]c(=S)c3[nH]c(C(C)C)nc32)cc1OC1CCCC1 [Ex. 1, 3-(3-Cyclopentyloxy-4-methoxy-benzyl)-8-isopropyl-6-thioxanthine]	25.7	–	25	~25	–
O=c1[nH]c(=S)c2[nH]cnc2n1Cc1ccc(Cl)cc1 [Ex. 2, 3-(4-Chlorobenzyl)-6-thioxanthine]	–	78	25	–	313 to 317 °C
CCCn1c(=O)[nH]c(=S)c2[nH]c(Cc3ccc4ccccc4c3)nc21 [Ex. 10, 8-(2-naphthylmethyl)-3-propyl-6-thio-xanthine]	3.8	2.8	2.7	–	220 to 223 °C
CCNc1nc(=O)n(Cc2ccc(Cl)cc2)c2nc(C(C)C)[nH]c12 [Ex. 5b, 3-(4-Chlorobenzyl)-N^6-ethyl-8-isopropyl-isoguanine]	0.5	9.4	317	–	–
CCn1c(=O)[nH]c(=S)c2[nH]c(Cc3ccc(OC)c(OC4CCCC4)c3)nc21 [Ex. 8, 8-(3-cyclopentyloxy-4-methoxybenzyl)-3-ethyl-6-thio-xanthine]	23.9	4	28.2	–	195 to 197 °C
CCNc1nc(=O)n(Cc2ccc(OC)c(OC3CCCC3)c2)c2nc(C(C)C)[nH]c12 [compound 12, 3-(3-Cyclopentyloxy-4-methoxy-benzyl)-N^6-ethyl-8-isopropyl-isoguanine]	–	–	–	–	110 to 115 °C
CCCn1c(=O)[nH]c(=S)c2[nH]c(Cc3ccc(OC)c(OC)c3)nc21 [Ex. 9, 8-(3,4-dimethoxybenzyl)-3-propyl-6-thio-xanthine]	–	8.5	23.6	–	237 to 239 °C
CCCNc1nc(=O)n(CC2CC2)c2nc(C(C)C)[nH]c12 [Ex. 6, 3-Cyclopropylmethyl-8-isopropyl-N^6-propyl-isoguanine]	–	24	492	–	208 to 210 °C
COc1ccc(C2CNC(=O)C2)cc1OC1CCCC1 (centres unmarked) [Rolipram, reference compound]	–	2.6	790	–	–
CCNc1nc(=O)n(CC)c2nc(C3CC3)[nH]c12 [Ex. 7, 8-Cyclopropyl-3, N^6-diethyl-isoguanine]	–	51	207	–	–
CC(C)c1nc2c([nH]1)c(=S)[nH]c(=O)n2Cc1ccncc1 [Ex. 3, 8-Isopropyl-3-(4-picolyl)-6-thioxanthine]	–	18.2	215	–	310 to 314 °C (dec.)
CC(C)c1nc2c([nH]1)c(=S)[nH]c(=O)n2Cc1cccc(Cl)c1 [Ex. 4, 3-(3-Chlorobenzyl)-8-isopropyl-6-thioxanthine]	0.7	4.1	44	–	218 to 220 °C
CC(C)c1nc2c([nH]1)c(=S)[nH]c(=O)n2-c1cccc(Cl)c1 [Ex. 11, 3-(3-Chlorophenyl)-8-isopropyl-6-thioxanthine]	65.4	–	311	–	–
COc1ccc(Cn2c(=O)[nH]c(=S)c3[nH]c(C(C)C)nc32)cc1OC1CCCC1 (hydrate or solvate) [Ex. 1, 3-(3-Cyclopentyloxy-4-methoxy-benzyl)-8-isopropyl-6-thioxanthine]	–	–	–	–	192 to 193 °C
